Here are results for eight compounds from ChEMBL document CHEMBL1144724, “Secondary metabolites of Cinnamosma madagascariensis and their alpha-glucosidase inhibitory properties” (J Nat Prod, 2008).

Active and inactive are the calls of the source. The calls are words filed in the database; no cut-off is given here.

This assay in a line: Inhibition of alpha-glucosidase at 0.1 mg/mL relative to 1-deoxynojirimycin.

With `CO[C@@H]1O[C@@H](OC)[C@@]2(O)C1=C[C@@H](OC(C)=O)[C@H]1C(C)(C)CCC[C@@]12C`, the outcome was inactive. The term inhibition denotes the drop in the measured response relative to a control, in per cent. A low value points to little suppression. With `CC1(C)CCC[C@@]2(C)[C@H]1[C@H](O)C=C1C(=O)OC[C@@]12O`, the inhibition came out at 7.2%.

In turn, `CC(=O)O[C@@H]1[C@@H](O)C2=C(COC2=O)[C@@]2(C)CCCC(C)(C)[C@H]12` registered an inhibition of 14.9%. Same read-out and setting: the same measure for `CC(=O)O[C@@H]1C=C(C2O[C@@H]3OC(O)C4=C[C@@H](OC(C)=O)[C@H]5C(C)(C)CCC[C@]5(C)[C@]43O2)[C@](O)(C=O)[C@@]2(C)CCCC(C)(C)[C@H]12` (stereo partly drawn): 83.7%; for `CC(=O)O[C@@H]1[C@@H](O)C2=C(C(=O)OC2)[C@@]2(C)CCCC(C)(C)[C@H]12`: 46.2%. `CC1(C)CCC[C@]2(C)[C@@H](C=O)C(C=O)=CC[C@@H]12` yielded an inhibition of 2.1%.

In the case of `CC(=O)O[C@@H]1[C@@H](Cl)C2=C(COC2=O)[C@@]2(C)CCCC(C)(C)[C@H]12`, the inhibition came to 28.1%. On the same count and under the same terms, the same measure for `CC(=O)O[C@@H]1C=C2C(=O)OC[C@]2(O)[C@@]2(C)CCCC(C)(C)[C@H]12`: 20%.
